Here are results for 1 compound from ChEMBL document CHEMBL3351438, “Further optimization of the M5 NAM MLPCN probe ML375: tactics and challenges” (Bioorg Med Chem Lett, 2015).

Data set [1] is described as follows: Fraction unbound in Sprague-Dawley rat brain. Conditions: brain tissue. It is filed as ADME, tissue-based.
Data set [2] concerns the target T1, Muscarinic acetylcholine receptor M5 (Homo sapiens, UniProt P08912).
T1 sequence (P08912 whole entry): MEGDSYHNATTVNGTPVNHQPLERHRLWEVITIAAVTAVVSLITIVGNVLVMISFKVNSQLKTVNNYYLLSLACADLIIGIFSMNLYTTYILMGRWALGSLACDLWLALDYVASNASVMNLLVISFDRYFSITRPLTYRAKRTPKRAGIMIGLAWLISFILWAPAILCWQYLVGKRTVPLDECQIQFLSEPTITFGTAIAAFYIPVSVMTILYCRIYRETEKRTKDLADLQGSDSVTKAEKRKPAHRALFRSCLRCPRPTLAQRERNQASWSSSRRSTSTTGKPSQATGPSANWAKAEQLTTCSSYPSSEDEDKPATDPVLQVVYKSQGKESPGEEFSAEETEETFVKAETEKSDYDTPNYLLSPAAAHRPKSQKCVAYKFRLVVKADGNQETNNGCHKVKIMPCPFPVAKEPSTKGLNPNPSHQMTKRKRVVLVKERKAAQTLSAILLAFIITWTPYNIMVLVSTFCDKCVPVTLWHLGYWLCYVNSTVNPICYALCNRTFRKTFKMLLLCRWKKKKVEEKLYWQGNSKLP
The data set can be described thus: Negative allosteric modulation of human muscarinic acetylcholine receptor M5 expressed in CHO cells assessed as inhibition of acetylcholine-induced calcium mobilization incubated for 150 secs prior to acetylcholine induction by Fluo4AM staining-based fluorescence assay.

Data set [3] is described as follows: Fraction unbound in Sprague-Dawley rat plasma. As to conditions: Sprague-Dawley. Type of data set: ADME, cell-free.
Data set [4] deals with T2, Muscarinic acetylcholine receptor M5 (Rattus norvegicus, UniProt P08911).
T2 sequence (P08911 whole entry): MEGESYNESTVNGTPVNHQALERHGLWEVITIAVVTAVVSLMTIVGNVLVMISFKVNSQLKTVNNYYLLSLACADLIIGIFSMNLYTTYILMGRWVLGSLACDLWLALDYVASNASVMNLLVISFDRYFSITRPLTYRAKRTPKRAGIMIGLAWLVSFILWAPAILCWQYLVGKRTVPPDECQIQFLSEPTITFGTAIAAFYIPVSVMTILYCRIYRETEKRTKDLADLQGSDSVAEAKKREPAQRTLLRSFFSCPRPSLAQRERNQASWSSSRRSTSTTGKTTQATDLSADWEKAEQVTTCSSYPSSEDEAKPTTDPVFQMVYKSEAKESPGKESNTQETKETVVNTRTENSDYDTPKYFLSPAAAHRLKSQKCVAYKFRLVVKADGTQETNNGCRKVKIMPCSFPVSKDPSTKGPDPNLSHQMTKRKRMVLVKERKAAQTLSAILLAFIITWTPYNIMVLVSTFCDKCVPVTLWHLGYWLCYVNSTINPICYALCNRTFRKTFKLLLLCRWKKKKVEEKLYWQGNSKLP
Kind of data set: Negative allosteric modulation of rat muscarinic acetylcholine receptor M5 expressed in CHO cells assessed as inhibition of acetylcholine-induced calcium mobilization incubated for 150 secs prior to acetylcholine induction by Fluo4AM staining-based fluorescence assay. It is filed as functional, cell-based. As to conditions: read-out: IC50.

Data set [5] can be described thus: Intrinsic clearance in human liver microsomes. Type of data set: ADME. As to conditions: read-out: CLH.
Data set [6] in a line: Intrinsic clearance in human hepatocytes. Type of data set: ADME, cell-based, Hepatocyte. Conditions: read-out: CLH.
Data set [7] in a line: Intrinsic clearance in rat liver microsomes. It is filed as ADME. Conditions: read-out: CLH.
Data set [8] can be described thus: Intrinsic clearance in rat hepatocytes. Type of data set: ADME, cell-based, Hepatocyte. Conditions: read-out: CLH.
Data set [9] is described as follows: Half life in Sprague-Dawley rat at 1 mg/kg, iv. It is filed as ADME, organism-based. As to conditions: in vivo. Further details: dose 1 mg/kg, route intravenous.
Data set [10] in a line: Volume of distribution at steady state in Sprague-Dawley rat at 1 mg/kg, iv. It is filed as ADME, organism-based. On the set-up: dose 1 mg/kg, route intravenous. Conditions: in vivo, read-out: Vdss.
A short description of data set [11]: Mean residence time in Sprague-Dawley rat at 10 mg/kg, po. As to conditions: in vivo. Type of data set: ADME, organism-based. On the set-up: dose 10 mg/kg, route oral.
A short description of data set [12]: Tmax in Sprague-Dawley rat at 10 mg/kg, po. It is filed as ADME, organism-based. Further details: dose 10 mg/kg, route oral. As to conditions: in vivo.
Data set [13] relates to Rattus norvegicus. Kind of data set: AUC (0 to infinity) in Sprague-Dawley rat at 10 mg/kg, po. It is filed as ADME, organism-based, Plasma. On the set-up: time infinity, dose 10 mg/kg, route oral. As to conditions: in vivo.
For data set [14], the system named is Rattus norvegicus. The data set can be described thus: Oral bioavailability in Sprague-Dawley rat at 10 mg/kg. Conditions: in vivo. It is filed as ADME, organism-based.
Data set [15] can be described thus: AUC (0 to infinity) in Sprague-Dawley rat at 10 mg/kg, po pretreated with 56.6 mg/kg, po 1-aminobenzotriazole. It is filed as ADME, organism-based. On the set-up: dose 10 mg/kg, time infinity, route oral. Conditions: plasma.
Data set [16] is described as follows: Oral bioavailability in Sprague-Dawley rat at 10 mg/kg pretreated with 56.6 mg/kg, po 1-aminobenzotriazole. Type of data set: ADME, organism-based. Conditions: in vivo.
The nature of data set [17]: Cmax in Sprague-Dawley rat in plasma at 10 mg/kg, po pretreated with 56.6 mg/kg, po 1-aminobenzotriazole. On the set-up: dose 10 mg/kg, route oral. It is filed as ADME, organism-based.
The next data set deals with Plasma. The data set can be described thus: fCmax in Sprague-Dawley rat plasma at 10 mg/kg, po pretreated with 56.6 mg/kg, po 1-aminobenzotriazole. Type of data set: ADME, organism-based. As to conditions: in vivo.
Data set [18] can be described thus: Cmax in Sprague-Dawley rat in brain at 10 mg/kg, po pretreated with 56.6 mg/kg, po 1-aminobenzotriazole. Type of data set: ADME, organism-based. On the set-up: dose 10 mg/kg, route oral.

As to `COc1ccc([C@@]23c4ccccc4C(=O)N2CCN3C(=O)c2cc(F)c(F)c(F)c2)cc1C`, the fraction unbound in [1] was 0.006; in data set [3] it was 0.031. Further, the IC50 in data set [2] was found to be 264 nM; in data set [4], 516 nM. For the same compound, the CLint scaled in data set [5] came to 359 mL/min/kg; in data set [6], 19.8 mL/min/kg; in [7] it was 332 mL/min/kg; in data set [8], 57.8 mL/min/kg. In [9], this compound returned a half-life of 1.08 h. Also, the Vd in data set [10] is 4.9 L/kg. This compound yielded an MRT in data set [11] of 6.5 h. For the same compound, the Tmax in data set [12] was 2.8 h. Further, the AUC in the data set on Rattus norvegicus [13] was 3660 ng·h/mL. The compound also registered a F in the data set on Rattus norvegicus [14] of 2%. Besides, the total exposure AUC(0-inf) in data set [15] worked out at 17700 ng·h/mL. Moreover, the bioavailability in data set [16] was found to be 9.5%. Further, the Cmax worked out at 2 µM in data set [17] and 5.4 µM in data set [18]. The fCmax in the data set on Plasma was found to be 62 nM.
